# Patent US10563272B2, “Compositions comprising Metarhizium fungi and use thereof as a pesticide” (Cotton Research and Development Corporation, priority 2015, dated 2020)
# Legend:
# predatory bugs = assay: Foliar spray trial on Bollgard II cotton, Norwood 2010-11 (Example 7): predatory bugs; assay type: in vivo, Hemiptera (Nabidae, Lygaeidae, Pentatomidae); conditions: fipronil 62.5 mL/ha; for number of predatory bugs per meter: 1st spray, BC 667/DAT 511 0.50 L/ha; for number of predatory bugs per metre: 2nd spray, BC 667/DAT 511 0.5 L/ha
# Protocol: (§1) The trial was conducted on commercial Bollgard II® cotton crops at Norwood near Moree, NSW from 5 Dec. 2010 to 19 Feb. 2011. The cotton was at the early squaring stage, when it was attractive to green mirids (Khan et al. 2004).
# (§2) The study evaluated the efficacy of the following treatments against green mirids, green vegetable bugs and predatory insects: • 1. 500 mL/ha BC 667 spore in oil (1×10^7 spores/ml); • 2. 500 mL/ha DAT 511 spore in oil (1×10^7 spores/ml); • 3. 62.5 mL/ha Fipronil (conventional insecticide); and • 4. Unsprayed (control).
# (§3) The treatment plots were arranged in a randomized complete block design with four replicates per treatment. Each replicated plot measured 0.5 ha. Foliar application of each treatment was made on 18 Jan. 2011 using a ground spray rig fitted with flat fan nozzles to achieve a droplet size of 80 250 μm. The treatment was applied in the mornings when temperature was between 20° C. and 28° C. The timing of treatment was based on an economic threshold of 0.5 green mirids per metre, the IPM guideline and recommendation by CottonLogic.
# (§4) Pre-treatment counts of green mirid adults and nymphs, predatory beetles, predatory bugs, predatory lacewings and spiders were made by visual inspection of whole cotton plants. Both adults and nymphs of the beneficial insects were counted. Plants were assessed in randomly selected one-metre lengths of row of each treatment replicate (i.e. four metres per treatment). In all, two spray applications of each treatment were made. The first spray was made on 18 Jan. 2011. Post-treatment counts of the first spray application were taken 3, 7 and 14 days after treatment (DAT) (first spray). A second spray application was done on 1 Feb. 2011 when green mirid adults plus nymphs reached the threshold of 0.5 per metre. Post-treatment counts of the second spray application were taken 3, 7, 14, 21 and 28 DAT. Data are expressed as numbers of individuals of that species counted per metre for each treatment.
# lacewings = assay: Foliar spray trial on Bollgard II cotton, Norwood 2010-11 (Example 7): lacewings; assay type: in vivo, Chrysopa spp., Micromus tasmaniae; conditions: fipronil 62.5 mL/ha; for number of lacewings per meter: 1st spray, BC 667/DAT 511 0.50 L/ha; for number of lacewings per metre: 2nd spray, BC 667/DAT 511 0.5 L/ha
# Protocol: as §1, §2, §3, §4
# predatory beetles = assay: Bollgard II cotton, Auscott-Togo 2012-13, Field 63 (Experiment 2): predatory beetles; assay type: in vivo, Coleoptera (Coccinellidae, Melyridae); conditions: 62.5 mL/ha
# Protocol: (§5) Two separate trials (Experiment 1 in Field 77; Experiment 2 in Field 63) were conducted in Bollgard II cotton crops on a commercial cotton farm at Auscott-Togo near Narrabri, New South Wales from 11 Feb. to 5 Mar. 2013 (Field 77) and 19 Feb. to 6 Mar. 2013 (Field 63). The cotton used for each of the trials was at the late squaring to pod setting and maturation stages which was fairly attractive to green mirids.
# (§6) In both trials, the efficacy of the following treatments against green mirids and predatory insects was evaluated: • 1. 250 mL/ha DAT 511 spore in oil (1×10^7 spores/ml); • 2. 500 mL/ha DAT 511 spore in oil (1×10^7 spores/ml); • 3. 1 L/ha DAT 511 spore in oil (1×10^7 spores/ml); • 4. 62.5 mL/ha of fipronil; and • 5. Unsprayed (negative control).
# (§7) The treatment plots were arranged in a randomized complete block design with six replicates per treatment. Each replicated plot measured 40 m wide (40 rows) and 90 m long.
# (§8) Foliar application of each treatment was made on 28 Feb. (for both green mirids and beneficial insects) and 13 Mar. 2012 (for beneficial insects alone) using a ground spray rig fitted with flat fan nozzles to achieve a droplet size of 200 μm. The treatment was applied during the mornings when temperatures were between 20° C. and 28° C. The timing of treatment was based on the IPM Guidelines and recommendations by CottonLogic to use an economic threshold of 0.5 green mirids per metre (Deutscher and Wilson 1999; Khan et al. 2004).
# (§9) Pre-treatment counts of green mirid adults and nymphs, predatory beetles, predatory bugs, predatory lacewings and spiders were made by visual inspection of whole cotton plants. Both adults and nymphs of beneficial insects were counted. Plants were assessed in randomly selected one-metre lengths of row of each replicate (i.e. 6 m per treatment). Post-treatment counts were made 3, 7, 14 and 21 days after treatment. Data are expressed as numbers of green mirid adults and nymphs counted per metre for each treatment.
# predatory lacewings = assay: Bollgard II cotton, Auscott-Togo 2012-13, Field 63 (Experiment 2): predatory lacewings; assay type: in vivo, Chrysopa spp., Micromus tasmaniae; conditions: 62.5 mL/ha
# Protocol: as §5, §6, §7, §8, §9
smiles,measurement,setting,value
N#Cc1nn(-c2c(Cl)cc(C(F)(F)F)cc2Cl)c(N)c1[S+]([O-])C(F)(F)F (stereo not drawn) [fipronil],number of predatory bugs per meter,predatory bugs; 3 DAT,0.33 ± 0.33 a per meter
same,number of predatory bugs per meter,predatory bugs; 7 DAT,0.67 ± 0.33 a per meter
same,number of predatory bugs per meter,predatory bugs; 14 DAT,1.33 ± 0.33 a per meter
same,number of predatory bugs per meter,predatory bugs; pre-spray counts 18 Jan. 2011,0.67 ± 0.33 a per meter
same,number of predatory bugs per metre,predatory bugs; 3 DAT,0.33 ± 0.33a per metre
same,number of predatory bugs per metre,predatory bugs; 7 DAT,0.33 ± 0.33a per metre
same,number of predatory bugs per metre,predatory bugs; 14 DAT,0.67 ± 0.33a per metre
same,number of predatory bugs per metre,predatory bugs; 21 DAT,1.00 ± 0.58a per metre
same,number of predatory bugs per metre,predatory bugs; 28 DAT,0.67 ± 0.33a per metre
same,number of predatory bugs per metre,predatory bugs; pre-spray counts 1 Feb. 2011,1.33 ± 0.33a per metre
same,number of lacewings per meter,lacewings; 3 DAT,0.00 ± 0.00 a per meter
same,number of lacewings per meter,lacewings; 7 DAT,0.00 ± 0.00 a per meter
same,number of lacewings per meter,lacewings; 14 DAT,0.33 ± 0.33 a per meter
same,number of lacewings per meter,lacewings; pre-spray counts 18 Jan. 2011,0.67 ± 0.33 a per meter
same,number of lacewings per metre,lacewings; 3 DAT,0.33 ± 0.33a per metre
same,number of lacewings per metre,lacewings; 7 DAT,0.67 ± 0.33a per metre
same,number of lacewings per metre,lacewings; 14 DAT,0.67 ± 0.33a per metre
same,number of lacewings per metre,lacewings; 21 DAT,1.67 ± 0.33a per metre
same,number of lacewings per metre,lacewings; 28 DAT,1.33 ± 0.33a per metre
same,number of lacewings per metre,lacewings; pre-spray counts 1 Feb. 2011,0.33 ± 0.33a per metre
same,No. predatory beetles per meter,predatory beetles; 3 DAT,2.67 ± 0.33 a per meter
same,No. predatory beetles per meter,predatory beetles; 7 DAT,2.33 ± 0.33 a per meter
same,No. predatory beetles per meter,predatory beetles; 14 DAT,0.67 ± 0.33 a per meter
same,No. predatory beetles per meter,predatory beetles; 21 DAT,1.67 ± 0.33 a per meter
same,No. predatory beetles per meter,predatory beetles; pre-spray counts,5.67 ± 0.67ab per meter
same,No. predatory lacewings per meter,predatory lacewings; 3 DAT,0.00 ± 0.00 a per meter
same,No. predatory lacewings per meter,predatory lacewings; 7 DAT,0.00 ± 0.00 a per meter
same,No. predatory lacewings per meter,predatory lacewings; 14 DAT,0.00 ± 0.00 a per meter
same,No. predatory lacewings per meter,predatory lacewings; 21 DAT,0.00 ± 0.00 a per meter
same,No. predatory lacewings per meter,predatory lacewings; pre-spray counts,0.67 ± 0.33 a per meter
